We go through four molecules from US11555010B2, “Diamide antimicrobial agents” (BROWN UNIVERSITY, priority 2019, dated 2023).

Converted amounts (≈) assume the structure as drawn.

Assay [1] deals with E. Coli. Briefly: Resazurin antimicrobial MIC assay. The note with it: Escherichia coli, read-out: Apparent MIC Value.
Experimental: The assay is performed in LB broth. Resazurin sodium salt powder is prepared in distilled water and filter sterilized at 0.001% (w/v) for MIC assays and at 0.01% (w/v) for single concentration assays. Compounds are first screened in MIC assays to assess whether growth inhibition is dependent on inhibitor concentration. The plates are incubated for 30 min under aerobic conditions. Growth controls containing no inhibitory compound, sterility controls without inoculation, and controls containing a known antibiotic, chloramphenicol, are also included. […] Minimum inhibitory concentration (MIC) was determined as the lowest drug concentration that prevented the color change from blue to pink. Inhibition was quantified by observation of color change. […] Inhibition was quantified by fluorescence readings from plate reader SAFIRE, Firmware: V 2.2008/02 Safire. […] Plates are held at 37° C. and fluorescence measurements are taken at 0, 5, 10, 20, 30, and 60 min after addition of dye. Lower fluorescence values correlate to greater degrees of inhibition.
Briefly, second passage cells of B. subtilis 11774 were grown in LB media and standardized to an OD600 nm=1.0. Diamides were analyzed via serial dilution into LB media in microtitre plates. […] MICs were read directly off the plate or via fluorescence (λex 560 nm, λem 590 nm). MICs were recorded as the lowest concentration that inhibited growth.
The test system of a further assay is B. subtilis. Briefly: Resazurin antimicrobial MIC assay. The settings on record: Bacillus subtilis, read-out: Apparent MIC Value. Type of assay: cell-based. How it is done: Bacillus subtilis ATCC 11775 was plated on agar from a 20% glycerol stock solution stored at −80′° C. Inoculated plates were then incubated at 37° C. under aerobic conditions for 16 hours. Single cultures were transferred to Nutrient Broth (NB) and cultured for 16 hours under the same conditions. […] The assay is performed in LB broth. […] Compounds are tested […] for their capacity to inhibit B. subtilis growth. In order to determine growth inhibition, a resazurin whole-cell assay was used (Kuhn, et al., 2014, Medchemcomm 5:1213-1217). Briefly, second-passage bacteria are incubated with inhibitor in a 96-well plate for four hours, then resazurin dye is added and color/fluorescence change is observed. The resazurin is naturally a blue color, but with reductive species produced during bacterial growth, it is reduced to resorufin, which appears pink. Resorufin is also fluorescent and can be measured by a plate-reader. The disclosures of each and every patent, patent application, and publication cited herein are hereby incorporated herein by reference in their entirety.

Assay [2] has as its system E. coli. The note with it: cited from earlier work.

With `O=C(NC1CCCCC1)C(C1CCNCC1)N(C(=O)c1ccccc1I)C1CCCCC1` (stereo not shown) [Example 6, N-cyclohexyl-N-(2-(cyclohexylamino)-2-oxo-1-(piperidin-4-yl)ethyl)-2-iodobenzamide], the MIC with E. Coli [1] was found to be 5 µM (≈ 2.76 µg/mL). In the case of `NCC(C(=O)NC1CCCCC1)N(C(=O)c1ccccc1I)C1CCCCC1` (stereo not shown) [Example 3, N-(3-amino-1-(cyclohexylamino)-1-oxopropan-2-yl)-N-cyclohexyl-2-iodobenzamide], in the assay on B. subtilis, the MIC is 5 µM (≈ 2.49 µg/mL). For the molecule `CC(N)C(C(=O)NC1CCCCC1)N(C(=O)c1ccccc1I)C1CCCCC1` (stereo not shown) [Example 2], the MIC in the assay with B. subtilis came out at 5 µM (≈ 2.56 µg/mL). With `CC1=N[C@@H]2[C@@H](O)[C@H](O)[C@@H](CO)O[C@@H]2S1` [NAG-thiazoline], the “effect on the viability of E. coli” value in the assay on E. coli [2] is recorded as “no effect”.
